ChEMBL document CHEMBL4270599, “Synthesis of a 3'-C-ethynyl-β-d-ribofuranose purine nucleoside library: Discovery of C7-deazapurine analogs as potent antiproliferative nucleosides” (Eur J Med Chem, 2018)

Legend:
Format in all cases: functional
[1] = test system: HL-60(TB); assay: Cytotoxicity against human HL-60(TB) cells after 48 hrs by SRB assay; details: HL-60, 48 h
[2] = test system: A549; assay: Cytotoxicity against human A549 cells after 48 hrs by SRB assay; details: A549, 48 h
[3] = test system: NCI-H522; assay: Cytotoxicity against human NCI-H522 cells after 48 hrs by SRB assay; details: NCI-H522, 48 h
[4] = test system: SF-268; assay: Cytotoxicity against human SF268 cells after 48 hrs by SRB assay; details: SF-268, 48 h
[5] = test system: LOX IMVI; assay: Cytotoxicity against human LOXIMVI cells after 48 hrs by SRB assay
[6] = test system: UACC-257; assay: Cytotoxicity against human UACC257 cells after 48 hrs by SRB assay; details: UACC-257, 48 h
[7] = test system: IGROV-1; assay: Cytotoxicity against human IGROV1 cells after 48 hrs by SRB assay; details: IGROV-1, 48 h
[8] = test system: T47D; assay: Cytotoxicity against human T47D cells after 48 hrs by SRB assay
[9] = test system: CCRF-CEM; assay: Growth inhibition of human CCRF-CEM cells assessed as cell growth at 10^-8 M incubated for 48 hrs by sulforhodamine B assay relative to control; details: read-out: Activity
[10] = test system: NCI-H522; assay: Growth inhibition of human NCI-H522 cells assessed as cell growth at 10^-8 M incubated for 48 hrs by sulforhodamine B assay relative to control; details: NCI-H522, 48 h, read-out: Activity
[11] = test system: SNB-19; assay: Growth inhibition of human SNB19 cells assessed as cell growth at 10^-8 M incubated for 48 hrs by sulforhodamine B assay relative to control; details: SNB-19, 48 h, read-out: Activity
[12] = test system: OVCAR-4; assay: Growth inhibition of human OVCAR4 cells assessed as cell growth at 10^-8 M incubated for 48 hrs by sulforhodamine B assay relative to control; details: OVCAR-4, 48 h, read-out: Activity
[13] = test system: HL-60(TB); assay: Growth inhibition of human HL-60(TB) cells assessed as cell growth at 10^-7 M incubated for 48 hrs by sulforhodamine B assay relative to control; details: HL-60, 48 h, read-out: Activity
[14] = test system: RPMI-8226; assay: Growth inhibition of human RPMI8226 cells assessed as cell growth at 10^-7 M incubated for 48 hrs by sulforhodamine B assay relative to control; details: RPMI-8226, 48 h, read-out: Activity
[15] = test system: MDA-MB-435; assay: Growth inhibition of human MDA-MB-435 cells assessed as cell growth at 10^-7 M incubated for 48 hrs by sulforhodamine B assay relative to control; details: MDA-MB-435, 48 h, read-out: Activity
[16] = test system: SK-MEL-5; assay: Growth inhibition of human SK-MEL-5 cells assessed as cell growth at 10^-7 M incubated for 48 hrs by sulforhodamine B assay relative to control; details: SK-MEL-5, 48 h, read-out: Activity
[17] = test system: A498; assay: Growth inhibition of human A498 cells assessed as cell growth at 10^-7 M incubated for 48 hrs by sulforhodamine B assay relative to control; details: A498, 48 h, read-out: Activity
[18] = test system: MOLT-4; assay: Growth inhibition of human MOLT4 cells assessed as cell growth at 10^-6 M incubated for 48 hrs by sulforhodamine B assay relative to control; details: MOLT-4, 48 h, read-out: Activity
[19] = test system: ACHN; assay: Growth inhibition of human ACHN cells assessed as cell growth at 10^-6 M incubated for 48 hrs by sulforhodamine B assay relative to control; details: read-out: Activity
[20] = test system: CCRF-CEM; assay: Growth inhibition of human CCRF-CEM cells assessed as cell growth at 10^-5 M incubated for 48 hrs by sulforhodamine B assay relative to control; details: read-out: Activity
[21] = test system: MDA-MB-435; assay: Growth inhibition of human MDA-MB-435 cells assessed as cell growth at 10^-5 M incubated for 48 hrs by sulforhodamine B assay relative to control; details: MDA-MB-435, 48 h, read-out: Activity
[22] = test system: HCT-116; assay: Growth inhibition of human HCT116 cells assessed as cell growth at 10^-4 M incubated for 48 hrs by sulforhodamine B assay relative to control; details: HCT-116, 48 h, read-out: Activity
[23] = test system: UACC-62; assay: Growth inhibition of human UACC62 cells assessed as cell growth at 10^-8 M incubated for 48 hrs by sulforhodamine B assay relative to control; details: UACC-62, 48 h, read-out: Activity
[24] = read-out: pLC50 (the source's name) (converted)
[25] = read-out: LC50 (the source's name)

## C#C[C@@]1(O)[C@@H](CO)O[C@@H](n2cc(Cl)c3c(N)ncnc32)[C@@H]1O
[1]; read-out: GI50
  GI50: 34.1 to 84 nM
[1]; read-out: TGI
  TGI: 197 to 317 nM
[1]; [24]
  CC50: > 100000 nM
[2]; read-out: GI50
  GI50: 138 to 237 nM
[2]; [24]
  CC50: > 100000 nM
[3]; read-out: GI50
  GI50: 81.6 to 134 nM
[3]; read-out: TGI
  TGI: 276 to 455 nM
[3]; [24]
  CC50: > 100000 nM
[4]; read-out: GI50
  GI50: 328 to 338 nM
[4]; read-out: TGI
  TGI: 14400 to 31100 nM
[4]; [24]
  CC50: > 100000 nM
[5]; read-out: GI50
  GI50: 36 to 81.4 nM
[5]; [25]
  CC50: 756 to 871 nM
[5]; read-out: TGI
  TGI: 226 to 284 nM
[6]; read-out: GI50
  GI50: 270 to 446 nM
[6]; [25]
  CC50: > 100000 nM
[6]; read-out: TGI
  TGI: 63800 to 100000 nM
[7]; read-out: GI50
  GI50: 123 to 145 nM
[7]; [25]
  CC50: > 100000 nM
[7]; read-out: TGI
  TGI: 475 nM
[7]; read-out: pTGI (converted)
  TGI: 479 nM
[8]; read-out: GI50
  GI50: 33.6 to 98 nM
[8]; [25]
  CC50: > 100000 nM
[8]; read-out: TGI
  TGI: 428 to 559 nM
[9]
  growth at 0.01 µM: 96 to 97%
[10]
  growth at 0.01 µM: 82 to 88%
[11]
  growth at 0.01 µM: 68 to 94%
[12]
  growth at 0.01 µM: 89 to 90%
[13]
  growth at 0.1 µM: 19 to 47%
[14]
  growth at 0.1 µM: 64 to 65%
[15]
  growth at 0.1 µM: 60 to 69%
[16]
  growth at 0.1 µM: 55 to 69%
[17]
  growth at 0.1 µM: 105 to 111%
[18]
  growth at 1 µM: 2%
[19]
  growth at 1 µM: 7%
[20]
  growth at 10 µM: 2 to 4%
[21]
  growth at 10 µM: -65%
[22]
  growth at 100 µM: 3 to 4%
[23]
  growth at 0.01 µM: 94 to 97%
